Source: ChEMBL document CHEMBL1201862, “PubChem BioAssay data set” (2004)
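Results reflect a 48-hour exposure of cells in 96-well plates to compound at five concentrations. GI50 marks 50% less growth.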 Active and inactive are the calls of the source. No stated cut-off is given here; in the data, active = GI50 up to about 1.1 µM and inactive = higher.

What was measured:
Assay in all cases: growth of human tumour cells (NCI), 48 h
M14 = system: M14
SN12C = system: SN12C
MDA-N = system: MDA-N
OVCAR-5 = system: OVCAR-5
MOLT-4 = system: MOLT-4
UO-31 = system: UO-31
OVCAR-8 = system: OVCAR-8
NCI-H460 = system: NCI-H460
SR = system: SR
SNB-19 = system: SNB-19
TK-10 = system: TK-10
NCI-H23 = system: NCI-H23
HT-29 = system: HT-29
MDA-MB-435 = system: MDA-MB-435
EKVX = system: EKVX
CAKI-1 = system: CAKI-1
T47D = system: T47D
A549 = system: A549
NCI/ADR-RES = system: NCI/ADR-RES
IGROV-1 = system: IGROV-1
SNB-75 = system: SNB-75
SW-620 = system: SW-620
SK-MEL-5 = system: SK-MEL-5
SK-MEL-2 = system: SK-MEL-2
786-0 = system: 786-0
HCT-116 = system: HCT-116
LOX IMVI = system: LOX IMVI
Malme-3M = system: Malme-3M
SF-539 = system: SF-539
MDA-MB-231 = system: MDA-MB-231
ACHN = system: ACHN
HOP-92 = system: HOP-92
SF-268 = system: SF-268
HCT-15 = system: HCT-15
SK-MEL-28 = system: SK-MEL-28
U-251 = system: U-251
HCC 2998 = system: HCC 2998
OVCAR-3 = system: OVCAR-3
COLO 205 = system: COLO 205
NCI-H226 = system: NCI-H226
UACC-257 = system: UACC-257
KM12 = system: KM12
MCF7 = system: MCF7
DU-145 = system: DU-145
K562 = system: K562
NCI-H522 = system: NCI-H522
CCRF-CEM = system: CCRF-CEM
OVCAR-4 = system: OVCAR-4
HOP-62 = system: HOP-62
HL-60 = system: HL-60
RXF 393 = system: RXF 393
Hs-578T = system: Hs-578T

## COc1nn(Cc2ccccc2F)c2ccc([N+](=O)[O-])cc12
M14
  GI50: > 100 µM (inactive)
SN12C
  GI50: > 100 µM (inactive)
MDA-N
  GI50: 3.4 µM (inactive)
OVCAR-5
  GI50: > 100 µM (inactive)
MOLT-4
  GI50: > 20 µM (inactive)
UO-31
  GI50: > 100 µM (inactive)
OVCAR-8
  GI50: > 100 µM (inactive)
NCI-H460
  GI50: > 100 µM (inactive)
SR
  GI50: > 100 µM (inactive)
SNB-19
  GI50: > 100 µM (inactive)
TK-10
  GI50: > 100 µM (inactive)
NCI-H23
  GI50: > 100 µM (inactive)
HT-29
  GI50: > 100 µM (inactive)
MDA-MB-435
  GI50: 2.74 µM (inactive)
EKVX
  GI50: > 100 µM (inactive)
CAKI-1
  GI50: > 100 µM (inactive)
T47D
  GI50: > 100 µM (inactive)
A549
  GI50: > 100 µM (inactive)
NCI/ADR-RES
  GI50: > 100 µM (inactive)
IGROV-1
  GI50: > 100 µM (inactive)
SNB-75
  GI50: > 100 µM (inactive)
SW-620
  GI50: > 100 µM (inactive)
SK-MEL-5
  GI50: > 100 µM (inactive)
SK-MEL-2
  GI50: 98.9 µM (inactive)
786-0
  GI50: > 100 µM (inactive)
HCT-116
  GI50: > 100 µM (inactive)
LOX IMVI
  GI50: > 100 µM (inactive)
Malme-3M
  GI50: > 85.3 µM (inactive)
SF-539
  GI50: 41.1 µM (inactive)
MDA-MB-231
  GI50: 12.1 µM (inactive)
ACHN
  GI50: > 100 µM (inactive)
HOP-92
  GI50: 90.6 µM (inactive)
SF-268
  GI50: > 100 µM (inactive)
HCT-15
  GI50: > 100 µM
SK-MEL-28
  GI50: > 100 µM (inactive)
U-251
  GI50: > 100 µM (inactive)
HCC 2998
  GI50: > 100 µM (inactive)
OVCAR-3
  GI50: > 100 µM (inactive)
COLO 205
  GI50: > 100 µM (inactive)
NCI-H226
  GI50: > 100 µM (inactive)
UACC-257
  GI50: > 50.6 µM (inactive)
KM12
  GI50: > 100 µM (inactive)
MCF7
  GI50: > 100 µM (inactive)
DU-145
  GI50: > 100 µM (inactive)
K562
  GI50: 2.91 µM (inactive)
NCI-H522
  GI50: > 30 µM (inactive)
CCRF-CEM
  GI50: > 100 µM (inactive)
OVCAR-4
  GI50: > 100 µM (inactive)
HOP-62
  GI50: 18.9 µM (inactive)
HL-60
  GI50: 4.28 µM (inactive)
RXF 393
  GI50: 7.48 µM (inactive)
Hs-578T
  GI50: > 45.9 µM (inactive)
